Consider six molecules from patent publication US20110263693A1, “CELASTROL, GEDUNIN, AND DERIVATIVES THEREOF AS HSP90 INHIBITORS” (DANA-FARBER CANCER INSTITUTE, INC., priority 2006, published 2011).

The subject of one data set is LNCaP cells. The data set can be described thus: Viability screen, luminescent ATP quantitation assay. The note with it: 1 nM R1881 plus compound ~20 μM, 3 days.
The subject of data set [1] is androgen signaling signature in LNCaP cells. The data set can be described thus: GE-HTS androgen signaling signature assay / screen. Particulars: LNCaP, 1 nM R1881 plus compound ~20 μM, 24 hr; count of 3 replicates.

Turning to dihydrocelastryl diacetate, the “viability screen: viability (% [ATP] normalized to R1881-treated control)” value with LNCaP cells turned out to be 50.7%. Moreover, in data set [1], the “GE-HTS screen # replicates that score as the androgon deprived state (n = 3): KNN” value (“GE-HTS screen # replicates that score … KNN” below) amounted to 2, the “GE-HTS screen # replicates that score as the androgon deprived state (n = 3): Naïve Bayes classifier (P < 0.05)” value was 0, the “GE-HTS screen # replicates that score as the androgon deprived state (n = 3): unweighted summed score (P < 0.05)” value is listed as 3 and the “GE-HTS screen # replicates that score as the androgon deprived state (n = 3): weighted summed score (P < 0.05)” value worked out at 0.

Regarding `CCCCCCCCCCCCCCCC[N+](C)(C)C.[Br-]` [cetrimonium bromide, reference compound], the “viability screen: viability (% [ATP] normalized to R1881-treated control)” value in the data set on LNCaP cells was determined as 109.7%. In data set [1], the “GE-HTS screen # replicates that score … KNN” value is listed as 3, the “GE-HTS screen # replicates that score as the androgon deprived state (n = 3): Naïve Bayes classifier (P < 0.05)” value is reported as 3, the “GE-HTS screen # replicates that score as the androgon deprived state (n = 3): unweighted summed score (P < 0.05)” value stood at 0 and the “GE-HTS screen # replicates that score as the androgon deprived state (n = 3): weighted summed score (P < 0.05)” value is reported as 0.

Turning to `CC(=O)[C@H]1CC[C@H]2[C@@H]3CC=C4C[C@@H](O)CC[C@]4(C)[C@H]3CC[C@]12C` [pregnenolone, reference compound], in the data set on LNCaP cells, the “viability screen: viability (% [ATP] normalized to R1881-treated control)” value was found to be 91.5%. Also, in data set [1], the “GE-HTS screen # replicates that score … KNN” value was determined as 3, the “GE-HTS screen # replicates that score as the androgon deprived state (n = 3): Naïve Bayes classifier (P < 0.05)” value came out at 2, the “GE-HTS screen # replicates that score as the androgon deprived state (n = 3): unweighted summed score (P < 0.05)” value came to 0 and the “GE-HTS screen # replicates that score as the androgon deprived state (n = 3): weighted summed score (P < 0.05)” value is 0.

With `C[C@@H]1[C@H](O)[C@@H](C)/C=C/C=C/CC/C=C/C=C/C=C/C=C/C(O[C@H]2O[C@H](C)[C@@H](O)[C@H](N)[C@@H]2O)CC2O[C@](O)(CC(O)C(O)CCC(O)CC(O)CC(O)CC(=O)O[C@H]1C)CC(O)C2C(=O)O` (stereo partly drawn) [nystatin, reference compound], the “viability screen: viability (% [ATP] normalized to R1881-treated control)” value in the data set with LNCaP cells is reported as 74.5%. In data set [1], the “GE-HTS screen # replicates that score … KNN” value came out at 2, the “GE-HTS screen # replicates that score as the androgon deprived state (n = 3): Naïve Bayes classifier (P < 0.05)” value came out at 2, the “GE-HTS screen # replicates that score as the androgon deprived state (n = 3): unweighted summed score (P < 0.05)” value amounted to 0 and the “GE-HTS screen # replicates that score as the androgon deprived state (n = 3): weighted summed score (P < 0.05)” value stood at 0.

Take “estrone hemisuccinate [reference compound]”: the “viability screen: viability (% [ATP] normalized to R1881-treated control)” value in the data set with LNCaP cells is given as 71.9%. Also, in data set [1], the “GE-HTS screen # replicates that score … KNN” value turned out to be 3, the “GE-HTS screen # replicates that score as the androgon deprived state (n = 3): Naïve Bayes classifier (P < 0.05)” value amounted to 3, the “GE-HTS screen # replicates that score as the androgon deprived state (n = 3): unweighted summed score (P < 0.05)” value is on record as 0 and the “GE-HTS screen # replicates that score as the androgon deprived state (n = 3): weighted summed score (P < 0.05)” value was found to be 1.

Turning to `CC1(C)C(=O)C=C[C@]2(C)[C@H]3CC[C@@]4(C)[C@H](c5ccoc5)OC(=O)[C@H]5O[C@]54[C@]3(C)C(=O)C[C@@H]12` [deacetoxy-7-oxogedunin], the “viability screen: viability (% [ATP] normalized to R1881-treated control)” value in the data set on LNCaP cells was determined as 69.0%. Further, in data set [1], the “GE-HTS screen # replicates that score … KNN” value is given as 3, the “GE-HTS screen # replicates that score as the androgon deprived state (n = 3): Naïve Bayes classifier (P < 0.05)” value is 3, the “GE-HTS screen # replicates that score as the androgon deprived state (n = 3): unweighted summed score (P < 0.05)” value worked out at 3 and the “GE-HTS screen # replicates that score as the androgon deprived state (n = 3): weighted summed score (P < 0.05)” value was found to be 3.
